Measurements: ChEMBL document CHEMBL3132769, “Fragment growing to retain or alter the selectivity of anchored kinase hinge-binding fragments” (Medchemcomm, 2014)

How the values were obtained:
[1] = biological target: T1, Serine/threonine-protein kinase DCLK2 (Homo sapiens) (UniProt Q8N568); assay: Inhibition of human full length DCAMKL2 expressed in baculovirus assessed as substrate phosphorylation using fluorescence-labelled peptides as substrate at 0.06 uM after 90 mins by microfluidic peptide phosphorylation assay
T1 sequence (whole entry): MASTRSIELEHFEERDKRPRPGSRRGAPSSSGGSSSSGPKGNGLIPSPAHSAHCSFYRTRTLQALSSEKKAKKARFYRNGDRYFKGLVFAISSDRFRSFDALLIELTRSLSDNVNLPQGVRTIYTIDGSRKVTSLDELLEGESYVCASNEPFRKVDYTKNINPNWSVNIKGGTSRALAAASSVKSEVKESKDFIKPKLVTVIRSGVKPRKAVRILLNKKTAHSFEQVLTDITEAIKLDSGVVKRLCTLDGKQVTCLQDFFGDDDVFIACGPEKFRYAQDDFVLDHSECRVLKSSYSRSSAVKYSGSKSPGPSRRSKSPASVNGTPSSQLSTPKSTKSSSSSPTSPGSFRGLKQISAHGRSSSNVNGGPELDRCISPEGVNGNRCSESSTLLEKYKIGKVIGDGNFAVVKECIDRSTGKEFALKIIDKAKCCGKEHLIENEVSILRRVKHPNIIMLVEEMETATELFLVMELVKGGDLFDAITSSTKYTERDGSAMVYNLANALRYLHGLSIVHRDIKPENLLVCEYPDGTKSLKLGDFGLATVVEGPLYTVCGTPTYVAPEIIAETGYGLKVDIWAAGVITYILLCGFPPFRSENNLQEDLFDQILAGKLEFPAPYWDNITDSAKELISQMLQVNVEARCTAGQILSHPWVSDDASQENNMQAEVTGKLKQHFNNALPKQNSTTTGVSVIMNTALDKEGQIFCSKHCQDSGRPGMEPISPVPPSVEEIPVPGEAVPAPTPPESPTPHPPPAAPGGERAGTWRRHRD

[2] = biological target: Calcium/calmodulin-dependent protein kinase type II subunit beta (Homo sapiens) (UniProt Q13554); assay: Inhibition of human CAMK2 beta catalytic domain expressed in baculovirus assessed as substrate phosphorylation using fluorescence-labelled peptides as substrate at 0.2 uM after 90 mins by microfluidic peptide phosphorylation assay
[3] = biological target: Protein kinase C beta type (Homo sapiens) (UniProt P05771); assay: Inhibition of human truncated PKC beta1 expressed in baculovirus assessed as substrate phosphorylation using fluorescence-labelled peptides as substrate at […] after 90 mins by microfluidic peptide phosphorylation assay
Chain of Protein kinase C beta type (Homo sapiens) (P05771 2-671 limits assumed): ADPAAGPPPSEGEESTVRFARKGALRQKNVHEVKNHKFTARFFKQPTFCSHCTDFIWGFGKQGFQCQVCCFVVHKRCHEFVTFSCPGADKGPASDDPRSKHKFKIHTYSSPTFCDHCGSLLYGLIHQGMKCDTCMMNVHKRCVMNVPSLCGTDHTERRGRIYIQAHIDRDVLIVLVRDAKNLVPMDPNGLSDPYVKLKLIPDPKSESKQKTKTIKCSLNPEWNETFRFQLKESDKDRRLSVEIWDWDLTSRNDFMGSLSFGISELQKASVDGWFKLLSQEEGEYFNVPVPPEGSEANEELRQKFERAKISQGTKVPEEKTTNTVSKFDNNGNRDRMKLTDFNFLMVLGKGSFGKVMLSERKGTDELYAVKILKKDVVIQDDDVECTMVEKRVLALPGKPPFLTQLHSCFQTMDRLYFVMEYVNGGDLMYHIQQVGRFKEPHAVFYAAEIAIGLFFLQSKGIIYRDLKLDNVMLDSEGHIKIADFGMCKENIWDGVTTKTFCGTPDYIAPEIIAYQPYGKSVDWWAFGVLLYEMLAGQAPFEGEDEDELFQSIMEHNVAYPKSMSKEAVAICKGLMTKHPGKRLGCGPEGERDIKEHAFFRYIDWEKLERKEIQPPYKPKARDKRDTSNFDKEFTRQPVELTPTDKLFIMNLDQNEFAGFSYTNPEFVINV

[4] = biological target: Protein kinase C eta type (Homo sapiens) (UniProt P24723); assay: Inhibition of human truncated PKC eta expressed in baculovirus assessed as substrate phosphorylation using fluorescence-labelled peptides as substrate at […] after 90 mins by microfluidic peptide phosphorylation assay
Chain of Protein kinase C eta type (Homo sapiens) (P24723 whole entry, the tested form may be a part): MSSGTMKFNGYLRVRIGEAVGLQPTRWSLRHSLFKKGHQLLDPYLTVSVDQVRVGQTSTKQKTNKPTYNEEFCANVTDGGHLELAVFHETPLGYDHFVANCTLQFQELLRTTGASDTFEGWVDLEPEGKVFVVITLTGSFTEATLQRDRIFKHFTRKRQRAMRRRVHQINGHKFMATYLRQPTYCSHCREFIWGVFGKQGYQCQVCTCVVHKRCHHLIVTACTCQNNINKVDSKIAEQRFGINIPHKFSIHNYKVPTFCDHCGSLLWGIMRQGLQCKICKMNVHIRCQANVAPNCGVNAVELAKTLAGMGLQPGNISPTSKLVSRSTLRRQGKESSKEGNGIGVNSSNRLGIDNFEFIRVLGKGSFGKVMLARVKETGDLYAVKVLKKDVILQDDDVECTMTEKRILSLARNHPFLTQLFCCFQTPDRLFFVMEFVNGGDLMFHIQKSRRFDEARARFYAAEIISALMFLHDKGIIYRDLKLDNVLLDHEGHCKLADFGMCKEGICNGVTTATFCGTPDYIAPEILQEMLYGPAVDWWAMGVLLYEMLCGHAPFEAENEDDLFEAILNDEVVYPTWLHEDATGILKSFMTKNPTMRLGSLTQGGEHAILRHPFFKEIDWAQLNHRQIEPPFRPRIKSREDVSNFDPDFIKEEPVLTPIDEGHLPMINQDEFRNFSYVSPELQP

[5] = biological target: RAC-alpha serine/threonine-protein kinase (Homo sapiens) (UniProt P31749); assay: Inhibition of human AKT1 catalytic domain expressed in baculovirus assessed as substrate phosphorylation using fluorescence-labelled peptides as substrate at 9 uM after 90 mins by microfluidic peptide phosphorylation assay
Chain of RAC-alpha serine/threonine-protein kinase (Homo sapiens) (P31749 whole entry, the tested form may be a part): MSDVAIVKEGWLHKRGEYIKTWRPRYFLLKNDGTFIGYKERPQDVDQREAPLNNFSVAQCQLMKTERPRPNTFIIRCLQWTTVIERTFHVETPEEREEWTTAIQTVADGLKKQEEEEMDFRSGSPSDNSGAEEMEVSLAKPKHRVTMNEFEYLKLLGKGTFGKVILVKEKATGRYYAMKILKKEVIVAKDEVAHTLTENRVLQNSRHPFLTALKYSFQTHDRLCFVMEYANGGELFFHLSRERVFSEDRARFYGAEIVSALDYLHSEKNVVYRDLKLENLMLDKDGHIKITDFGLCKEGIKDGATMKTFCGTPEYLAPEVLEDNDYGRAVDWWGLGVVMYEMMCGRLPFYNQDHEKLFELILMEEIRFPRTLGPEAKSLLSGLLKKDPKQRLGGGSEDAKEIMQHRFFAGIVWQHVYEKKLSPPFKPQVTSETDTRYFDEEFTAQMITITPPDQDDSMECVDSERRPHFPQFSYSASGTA

[6] = biological target: Mitogen-activated protein kinase kinase kinase kinase 4 (Homo sapiens) (UniProt O95819); assay: Inhibition of human HGK catalytic domain expressed in baculovirus assessed as substrate phosphorylation using fluorescence-labelled peptides as substrate at 9 uM after 90 mins by microfluidic peptide phosphorylation assay
Chain of Mitogen-activated protein kinase kinase kinase kinase 4 (Homo sapiens) (O95819 2-1239 limits assumed): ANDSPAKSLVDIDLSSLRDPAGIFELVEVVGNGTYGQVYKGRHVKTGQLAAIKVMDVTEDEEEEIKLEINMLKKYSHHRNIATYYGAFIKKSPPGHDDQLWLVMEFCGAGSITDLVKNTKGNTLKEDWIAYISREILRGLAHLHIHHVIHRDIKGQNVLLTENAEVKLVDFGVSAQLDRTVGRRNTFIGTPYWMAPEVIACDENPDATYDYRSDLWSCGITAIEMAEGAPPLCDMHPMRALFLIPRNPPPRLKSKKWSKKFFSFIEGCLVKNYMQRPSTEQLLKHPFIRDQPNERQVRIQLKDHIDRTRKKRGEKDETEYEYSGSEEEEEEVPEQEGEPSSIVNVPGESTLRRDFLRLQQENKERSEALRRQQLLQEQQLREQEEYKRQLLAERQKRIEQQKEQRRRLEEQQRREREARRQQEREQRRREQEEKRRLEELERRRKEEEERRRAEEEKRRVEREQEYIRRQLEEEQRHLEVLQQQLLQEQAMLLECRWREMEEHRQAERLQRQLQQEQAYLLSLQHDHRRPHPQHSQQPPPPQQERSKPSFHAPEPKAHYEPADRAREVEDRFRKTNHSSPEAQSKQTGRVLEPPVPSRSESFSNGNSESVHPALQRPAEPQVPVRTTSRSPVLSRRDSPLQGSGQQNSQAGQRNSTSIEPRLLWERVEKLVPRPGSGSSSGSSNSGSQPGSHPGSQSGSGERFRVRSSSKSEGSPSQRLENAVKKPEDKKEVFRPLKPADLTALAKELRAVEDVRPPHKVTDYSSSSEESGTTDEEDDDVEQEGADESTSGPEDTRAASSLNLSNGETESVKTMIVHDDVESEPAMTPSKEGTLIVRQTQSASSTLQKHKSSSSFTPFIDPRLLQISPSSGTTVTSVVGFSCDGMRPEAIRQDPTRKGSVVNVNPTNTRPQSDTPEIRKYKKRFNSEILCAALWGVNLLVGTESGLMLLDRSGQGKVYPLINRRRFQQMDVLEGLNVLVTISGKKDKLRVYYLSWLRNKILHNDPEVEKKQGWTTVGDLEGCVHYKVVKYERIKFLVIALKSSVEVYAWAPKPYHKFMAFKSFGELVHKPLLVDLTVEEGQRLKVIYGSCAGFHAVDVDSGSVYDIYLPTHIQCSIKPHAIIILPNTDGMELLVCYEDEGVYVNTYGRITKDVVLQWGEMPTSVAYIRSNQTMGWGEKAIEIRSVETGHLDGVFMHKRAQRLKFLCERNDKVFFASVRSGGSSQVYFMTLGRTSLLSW

[7] = biological target: Protein kinase C beta type (Homo sapiens) (UniProt P05771); assay: Inhibition of human full length PKC beta2 expressed in baculovirus assessed as substrate phosphorylation using fluorescence-labelled peptides as substrate at 9 uM after 90 mins by microfluidic peptide phosphorylation assay
[8] = biological target: T2, Serine/threonine-protein kinase Sgk3 (Homo sapiens) (UniProt Q96BR1); assay: Inhibition of human full length SGK3 expressed in baculovirus assessed as substrate phosphorylation using fluorescence-labelled peptides as substrate at 9 uM after 90 mins by microfluidic peptide phosphorylation assay
T2 sequence (whole entry): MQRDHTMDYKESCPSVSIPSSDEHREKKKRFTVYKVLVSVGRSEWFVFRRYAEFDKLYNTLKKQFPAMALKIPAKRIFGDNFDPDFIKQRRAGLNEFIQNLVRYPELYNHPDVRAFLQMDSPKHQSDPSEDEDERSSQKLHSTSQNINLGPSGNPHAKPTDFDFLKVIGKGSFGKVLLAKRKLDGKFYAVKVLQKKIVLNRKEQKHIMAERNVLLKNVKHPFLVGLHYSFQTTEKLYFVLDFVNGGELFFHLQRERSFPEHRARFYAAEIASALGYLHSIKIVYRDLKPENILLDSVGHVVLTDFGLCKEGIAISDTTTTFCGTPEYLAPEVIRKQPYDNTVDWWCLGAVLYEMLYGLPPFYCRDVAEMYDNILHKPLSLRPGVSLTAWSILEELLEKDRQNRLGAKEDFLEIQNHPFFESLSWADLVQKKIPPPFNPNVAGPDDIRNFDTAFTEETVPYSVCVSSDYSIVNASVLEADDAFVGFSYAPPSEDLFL

[9] = biological target: Protein kinase C alpha type (Homo sapiens) (UniProt P17252); conditions: 0.1 uM
Description: Inhibition of human truncated PKC alpha expressed in baculovirus assessed as substrate phosphorylation using fluorescence-labelled peptides as substrate at 0.1 uM after 90 mins by microfluidic peptide phosphorylation assay

[10] = biological target: T3, Aurora kinase A (Homo sapiens) (UniProt O14965); conditions: 0.1 uM
T3 sequence (whole entry): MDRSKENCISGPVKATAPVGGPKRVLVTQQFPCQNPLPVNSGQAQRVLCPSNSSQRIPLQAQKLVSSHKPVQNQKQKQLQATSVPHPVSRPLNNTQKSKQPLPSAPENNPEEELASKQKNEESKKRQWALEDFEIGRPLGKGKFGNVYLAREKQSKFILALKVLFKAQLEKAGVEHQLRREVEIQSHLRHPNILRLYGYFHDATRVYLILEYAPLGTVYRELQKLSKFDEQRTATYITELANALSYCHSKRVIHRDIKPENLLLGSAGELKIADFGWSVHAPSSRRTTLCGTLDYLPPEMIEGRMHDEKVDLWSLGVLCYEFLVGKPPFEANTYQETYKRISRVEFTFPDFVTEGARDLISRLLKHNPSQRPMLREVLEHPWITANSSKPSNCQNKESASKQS
Description: Inhibition of human full length AurA expressed in baculovirus assessed as substrate phosphorylation using fluorescence-labelled peptides as substrate at 0.1 uM after 90 mins by microfluidic peptide phosphorylation assay

[11] = biological target: Tyrosine-protein kinase ABL2 (Homo sapiens) (UniProt P42684); assay: Inhibition of human truncated Arg expressed in baculovirus assessed as substrate phosphorylation using fluorescence-labelled peptides as substrate at 0.1 uM after 90 mins by microfluidic peptide phosphorylation assay
Chain of Tyrosine-protein kinase ABL2 (Homo sapiens) (P42684 whole entry, the tested form may be a part): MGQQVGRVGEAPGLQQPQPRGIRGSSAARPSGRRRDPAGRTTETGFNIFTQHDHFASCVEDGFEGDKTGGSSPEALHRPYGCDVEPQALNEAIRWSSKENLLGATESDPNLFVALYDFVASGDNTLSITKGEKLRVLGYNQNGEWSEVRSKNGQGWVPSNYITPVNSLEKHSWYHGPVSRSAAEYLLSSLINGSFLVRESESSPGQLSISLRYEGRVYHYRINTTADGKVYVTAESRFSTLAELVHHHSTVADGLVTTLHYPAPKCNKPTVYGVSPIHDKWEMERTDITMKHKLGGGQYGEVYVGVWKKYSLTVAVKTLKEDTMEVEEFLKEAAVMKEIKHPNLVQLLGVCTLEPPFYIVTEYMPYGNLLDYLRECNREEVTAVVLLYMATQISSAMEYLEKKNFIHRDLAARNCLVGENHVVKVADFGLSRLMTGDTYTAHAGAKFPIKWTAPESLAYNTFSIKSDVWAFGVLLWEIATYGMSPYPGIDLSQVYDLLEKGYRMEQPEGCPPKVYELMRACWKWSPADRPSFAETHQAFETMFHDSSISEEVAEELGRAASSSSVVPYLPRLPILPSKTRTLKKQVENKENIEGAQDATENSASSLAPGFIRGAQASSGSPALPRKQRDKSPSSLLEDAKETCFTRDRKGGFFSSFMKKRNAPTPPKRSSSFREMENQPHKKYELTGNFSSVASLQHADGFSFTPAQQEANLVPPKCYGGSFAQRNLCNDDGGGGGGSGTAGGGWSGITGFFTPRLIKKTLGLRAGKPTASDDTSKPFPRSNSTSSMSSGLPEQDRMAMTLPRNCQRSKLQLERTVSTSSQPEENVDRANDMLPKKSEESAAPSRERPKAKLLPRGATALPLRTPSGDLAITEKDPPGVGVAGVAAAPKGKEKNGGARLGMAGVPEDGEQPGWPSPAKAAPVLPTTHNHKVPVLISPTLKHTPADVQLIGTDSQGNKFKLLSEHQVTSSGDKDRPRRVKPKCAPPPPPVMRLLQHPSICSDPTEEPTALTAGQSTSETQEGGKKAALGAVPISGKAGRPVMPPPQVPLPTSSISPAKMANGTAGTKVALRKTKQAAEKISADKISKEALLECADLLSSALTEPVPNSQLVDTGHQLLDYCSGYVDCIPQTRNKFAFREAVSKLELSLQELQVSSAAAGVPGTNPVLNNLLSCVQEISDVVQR

[12] = biological target: RAF proto-oncogene serine/threonine-protein kinase (Homo sapiens) (UniProt P04049); assay: Inhibition of human truncated c-Raf expressed in baculovirus assessed as substrate phosphorylation using fluorescence-labelled peptides as substrate at 95 uM after 90 mins by microfluidic peptide phosphorylation assay
[13] = biological target: Fibroblast growth factor receptor 2 (Homo sapiens) (UniProt P21802); assay: Inhibition of human FGFR2 catalytic domain expressed in baculovirus assessed as substrate phosphorylation using fluorescence-labelled peptides as substrate at 1000 uM after 90 mins by microfluidic peptide phosphorylation assay
[14] = biological target: Casein kinase I isoform delta (Homo sapiens) (UniProt P48730); assay: Inhibition of human CK1D catalytic domain expressed in Escherichia coli cell assessed as substrate phosphorylation using fluorescence-labelled peptides as substrate at 1000 uM after 90 mins by microfluidic peptide phosphorylation assay
Chain of Casein kinase I isoform delta (Homo sapiens) (P48730 whole entry, looked up, the tested form may be a part, canonical isoform): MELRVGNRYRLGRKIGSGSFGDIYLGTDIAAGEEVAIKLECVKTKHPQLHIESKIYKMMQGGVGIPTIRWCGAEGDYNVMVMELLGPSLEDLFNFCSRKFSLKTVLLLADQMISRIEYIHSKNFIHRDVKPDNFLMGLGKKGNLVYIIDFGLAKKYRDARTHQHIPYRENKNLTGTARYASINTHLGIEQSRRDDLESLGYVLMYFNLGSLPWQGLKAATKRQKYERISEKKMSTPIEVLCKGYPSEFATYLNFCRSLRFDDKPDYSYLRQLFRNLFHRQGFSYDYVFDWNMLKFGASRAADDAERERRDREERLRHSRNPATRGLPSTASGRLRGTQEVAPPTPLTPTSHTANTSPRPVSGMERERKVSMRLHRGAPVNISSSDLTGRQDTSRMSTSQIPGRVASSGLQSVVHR

Question: With `NC1(Cc2ccc(Cl)cc2)CCN(c2ncnc3[nH]ccc23)CC1` as the compound, how does the inhibition [1] read?
Answer: 0%

Question: With `Clc1ccc(C2(c3ccc(-c4ncnc5[nH]cnc45)cc3)CCNCC2)cc1` as the compound, how does the inhibition [2] read?
Answer: 11.5%

Question: `COC(=O)c1cnc(Nc2cnc(C#N)cn2)cc1NCC1CCNCC1` was tested. Which inhibition [3] did it give?
Answer: 2%

Question: And the inhibition [4]?
Answer: 1%

Question: For `NCC1CN(c2ncnc3[nH]c4cnccc4c23)CCO1` (centres undefined), which inhibition [5] is on record?
Answer: 52%

Question: And the inhibition [6]?
Answer: 54.5%

Question: What about the inhibition [7] of the same compound?
Answer: 23.5%

Question: And the inhibition [8]?
Answer: 44%

Question: Which results are given for `C[C@H](CN(C)C)Oc1nc(Nc2cc3cccc(Cl)c3cn2)cnc1C#N`?
Answer: inhibition [9]: 0%; inhibition [10]: 0%; inhibition [11]: 1.5%

Question: For `NCCc1ccc(-c2ncnc3[nH]cnc23)cc1`, which inhibition [12] is on record?
Answer: 39.5%

Question: `c1cnc2[nH]ccc2c1` was tested. Which inhibition [13] did it give?
Answer: 62%

Question: What about the inhibition [14] of the same compound?
Answer: 94.5%
